Reference: PubChem BioAssay AID2060906 (Molecular Pharmacology Branch, DTP, NCI, 2025)
pIC50: −log10 of the molar value.

Tested on: 485176-168-R4-J1-PDC complex spheroid growth
Assay: Anticancer human tumor 485176-168-R4-J1-PDC patient-derived pancreatic adenocarcinoma cell line growth inhibition [RAS]
Conditions: for pIC50: curve of first compound; for viability, T/C: stronger effect = lower value
How it was run: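 Tumour cells grown as complex spheroids with HUVEC endothelial cells and mesenchymal stem cells, treated with RAS pathway inhibitor combinations. Each agent spans half-log steps from near clinical Cmax, or 10 microM where Cmax is unknown.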
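Further: spheroids exposed to compounds for seven days before readout.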
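Wherever viability, T/C is given: luminescence viability expressed relative to DMSO vehicle wells set as 100%.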

C=CC(=O)Nc1cc(Nc2nccc(-c3cn(C)c4ccccc34)n2)c(OC)cc1N(C)CCN(C)C + C=CC(=O)N1CCN(c2nc(OCC3CCCN3C)nc3c(F)c(-c4nc(N)cc(C)c4C(F)(F)F)c(Cl)cc23)C(C)C1
pIC50 (second compound 0.00316 µM): < 6.00
pIC50 (second compound 0.01 µM): < 6.00
pIC50 (second compound 0.0316 µM): < 6.00
pIC50 (second compound 0.1 µM): < 6.00
pIC50 (second compound 0.316 µM): < 6.00
pIC50 (second compound 1 µM): < 6.00
viability, T/C (second compound 0.00316 µM, first compound 0.00316 µM): 101%
viability, T/C (second compound 0.00316 µM, first compound 0.01 µM): 111%
viability, T/C (second compound 0.00316 µM, first compound 0.0316 µM): 102%
viability, T/C (second compound 0.00316 µM, first compound 0.1 µM): 100%
viability, T/C (second compound 0.00316 µM, first compound 0.316 µM): 81.6%
viability, T/C (second compound 0.00316 µM, first compound 1 µM): 75.6%
viability, T/C (second compound 0.01 µM, first compound 0.00316 µM): 94.8%
viability, T/C (second compound 0.01 µM, first compound 0.01 µM): 102%
viability, T/C (second compound 0.01 µM, first compound 0.0316 µM): 109%
viability, T/C (second compound 0.01 µM, first compound 0.1 µM): 104%
viability, T/C (second compound 0.01 µM, first compound 0.316 µM): 96.7%
viability, T/C (second compound 0.01 µM, first compound 1 µM): 67.8%
viability, T/C (second compound 0.0316 µM, first compound 0.00316 µM): 111%
viability, T/C (second compound 0.0316 µM, first compound 0.01 µM): 122%
viability, T/C (second compound 0.0316 µM, first compound 0.0316 µM): 104%
viability, T/C (second compound 0.0316 µM, first compound 0.1 µM): 99.7%
viability, T/C (second compound 0.0316 µM, first compound 0.316 µM): 74.8%
viability, T/C (second compound 0.0316 µM, first compound 1 µM): 73.9%
viability, T/C (second compound 0.1 µM, first compound 0.00316 µM): 95.7%
viability, T/C (second compound 0.1 µM, first compound 0.01 µM): 94.2%
viability, T/C (second compound 0.1 µM, first compound 0.0316 µM): 98.7%
viability, T/C (second compound 0.1 µM, first compound 0.1 µM): 104%
viability, T/C (second compound 0.1 µM, first compound 0.316 µM): 90.9%
viability, T/C (second compound 0.1 µM, first compound 1 µM): 52.5%
viability, T/C (second compound 0.316 µM, first compound 0.00316 µM): 110%
viability, T/C (second compound 0.316 µM, first compound 0.01 µM): 102%
viability, T/C (second compound 0.316 µM, first compound 0.0316 µM): 90.8%
viability, T/C (second compound 0.316 µM, first compound 0.1 µM): 101%
viability, T/C (second compound 0.316 µM, first compound 0.316 µM): 84.7%
viability, T/C (second compound 0.316 µM, first compound 1 µM): 66.9%
viability, T/C (second compound 1 µM, first compound 0.00316 µM): 113%
viability, T/C (second compound 1 µM, first compound 0.01 µM): 99.6%
viability, T/C (second compound 1 µM, first compound 0.0316 µM): 100%
viability, T/C (second compound 1 µM, first compound 0.1 µM): 81%
viability, T/C (second compound 1 µM, first compound 0.316 µM): 75.5%
viability, T/C (second compound 1 µM, first compound 1 µM): 57.9%
